According to patent US20090176888A1, “COMPOSITION COMPRISING PHYTOSPHINGOSINE OR DERIVATIVE THEREOF” (KOREA INSTITUTE OF RADIOLOGICAL & MEDICAL SCIENCES, priority 2003, published 2009):

Tests used:
[1] = tested on: human lung cancer cells; test: DNA fragmentation (agarose gel electrophoresis); assay type: cell-based; conditions: 20 μg/ml C8PS with radiation, FIG. 20
Protocol: (§1) Human lung cancer cells were cultured in the same manner as in Experiment 1 and injected with 5 ml of 20 μg/ml of C8PS. Then, the DAPI staining and DNA fragmentation were carried out.
DNA fragmentation was carried out as follows:
C8PS-treated human lung cancer cells were dissolved in a lysis buffer (20 mM Tris/HCl, pH 8.0, 0.1 mM EDTA, 1% SDS and 0.5 mg/ml proteinase K) and treated with a mixture of phenol, chloroform, and isoamylalcohol (phenol/chloroform/isoamylalcohol=25:24:1) to thereby give a chromosomal DNA extract. The chromosomal DNA extract was subjected to 1% agarose gel electrophoresis and the resulting DNA fragments were visualized under an UV light.

[2] = tested on: human lung cancer cells; test: In vivo animal test, tumor volume with radiotherapy (20 Gy); design: species or system nude mice
Protocol: (§2) Nude mice (body weight: about 20 g) were randomized into 4 groups and the femoral region of the nude mice transplanted with human lung cancer cells. Then, tumor volume was allowed to reach a level of […]. One group had untreated cells as a control and a second group had radiation (dose of 20 Gy)-treated cells. A third group was orally administered with 50 mg/kg of an olive oil for one week on a daily basis, followed by radiotherapy (dose of 20 Gy). A fourth group was orally administered with a 50 mg/kg solution of phytosphingosine in an olive oil for one week on a daily basis, followed by radiotherapy (dose of 20 Gy). Tumor volume was measured at intervals of 3 days for 40 days. […] In case of a C8PS alone treated group, the tumor size increased until 10 days after the treatment. […] Meanwhile, tumor growth was suspended at a certain point of time after C8PS alone treatment. It can be seen from this fact that C8PS is useful by itself as an anticancer agent for inhibiting tumor growth.

[3] = tested on: human lung cancer cells; test: Colony formation test in combination with radiation; assay type: cell-based; conditions: for sensitizer enhancement ratio (SER): in combination with radiation
Protocol: (§3) Colony formation tests were carried out in human lung cancer cells, breast cancer cells, and uterine cervical cancer cells as follows:
(§4) Respective sphingosine, phytosphingosine, C6PS, and C8PS were dissolved ethanol to produce specimens. About 600 cells (for each cancer) were plated in a dish with a diameter of 60 mm and incubated in a CO2 incubator at 37° C. for a day. Then, the cancer cells were treated with the specimens in combination with radiation and were continuously cultured. When suitable colonies were formed, the cancer cells were fixed with a fixing solution (methanol/acetic acid=3:1) and stained with trypan blue. Then, the number of the colonies was counted and the results were evaluated in a comparative manner.

[4] = tested on: human lung cancer cells; test: Apoptosis test with or without radiation (4 Gy); assay type: cell-based; conditions: 20 μg/ml, FIG. 13
Protocol: (§5) (1) Each 5 ml of 20 μg/ml of phytosphingosine and derivatives thereof were added to human lung cancer cell-containing dishes. Some cells were cultured without radiation and others were cultured with radiation with dose of 4 Gy. This apoptosis test was carried out in the same manner in the Experiment 1. Specimens used in this apoptosis test are as follows:
(§6) Control (Cont), IR, PS, PS+IR, C4PS, C4PS+IR, C6PS, C6PS+IR, C8PS, C8PS+IR, C12PS, C12PS+IR.

[5] = tested on: human lung cancer cells; test: DAPI staining (percentage of apoptotic cells); assay type: cell-based; conditions: 20 μg/ml C8PS with radiation
Protocol: as §1
DAPI staining protocol was as follows:
First, a control cell group, a radiation-treated cell group, a C8PS-treated cell group, and a C8PS and radiation concurrent treated cell group were fixed with 4% paraformaldehyde at room temperature for 30 minutes and washed with PBS. 50 ng/ml of a DAPI solution was added to the fixed cell groups and incubated for 30 minutes. Then, the cell groups were again washed with PBS and examined with a fluorescent microscope. Cellular apoptosis is characterized by condensation and fragmentation of cell nuclei. Based on this fact, apoptotic cells were counted in each group. Then, the number of apoptotic cells was divided by the number of total cells to derive the percentage of apoptotic cells in each group.

[6] = tested on: human breast cancer cells; test: Apoptosis test with or without radiation; assay type: cell-based; conditions: 5 μg/ml in combination with radiation, FIG. 17
Protocol: as §5, §6
(§7) (2) Apoptosis tests for human blood cancer cells, uterine cervical cancer cells, and breast cancer cells were carried out in the same manner as in the above (1) except using 5 μg/ml of phytosphingosine and derivatives thereof.

[7] = tested on: human uterine cervical cancer cells; test: Apoptosis test with or without radiation; assay type: cell-based; conditions: 5 μg/ml in combination with radiation, FIG. 17
Protocol: as §5, §6, §7

[8] = tested on: human uterine cervical cancer cells; test: In vivo animal test, tumor size with radiotherapy; design: species or system nude mice; conditions: for tumor size, compound alone treated group: after 7 days (rapidly increased until 7 days after the treatment); for tumor size, radiation and compound concurrent treated group: as a function of days; for tumor size, concurrent treatment vs radiation or compound alone: with radiation, FIGS. 24 and 25
Protocol: as §2
The animal tests were carried out using nude mice of which the femoral regions were transplanted with human uterine cervical cancer cells in the same manner as the aforementioned animal test using C8PS.

[9] = tested on: human lung cancer cells (NCI-H460); test: Apoptosis test (Sub G1, propidium iodide, flow cytometry); assay type: cell-based; conditions: 5 μg/ml, culture time of 48 hours, FIG. 2
Protocol: Cancer cells as used in the experiment were human lung cancer cells (NCI-H460, Korean Cell Line Bank), human breast cancer cells (MDA-MB-231, American Type Culture Collection (ATCC)), human uterine cervical cancer cells (HeLa, Korean Cell Line Bank), and blood cancer cells (Jurkat, ATCC). These cancer cells were cultured in RPMI 1640 media containing 10% FBS, penicillin, and streptomycin (GIBCO BRL).
The apoptosis tests were carried out at human lung cancer cells, breast cancer cells, uterine cervical cancer cells, and blood cancer cells as follows:
Phytosphingosine or a derivative thereof was dissolved in DMSO. Samples of the resultant solution of different concentration levels (1, 2, 5, 10, 15, 20 μg/ml) were prepared. According to the following treatment schedule, phytosphingosine treated cancer cells were cultured, washed with PBS (phosphate buffered saline), and fixed with 70% ethanol. The fixed cells were again washed with PBS, suspended in PBS, and 1 mg/ml of RNase was added thereto. Then, DNA was stained with 50 μg/ml of propidium iodide fluorescent dye and the change in the Sub G1 was analyzed by flow cytometry (Becton DICKINSON). The Sub G1, a marker of apoptotic cell death, means DNA distribution lower than that in the G1 phase of cell cycle.
(1-1) In order to determine an anticancer effect of phytosphingosine, 5 ml of 10 μg/ml of phytosphingosine was added to respective dishes containing lung cancer cells, breast cancer cells, uterine cervical cancer cells, and blood cancer cells.
(1-2) In order to examine a correlation of an anticancer effect with the phytosphingosine concentration and post-treatment culture time, each 5 ml of 2, 5, 10, and 15 μg/ml of phytosphingosine was added to respective human uterine cervical cancer cell-containing dishes and human breast cancer cell-containing dishes. In addition, each 5 ml of 5, 10, 15, and 20 μg/ml of phytosphingosine was added to respective human lung cancer cell-containing dishes, and each 5 ml of 1, 5, 10, and 20 μg/ml of phytosphingosine was added to respective human blood cancer cell-containing dishes.
(1-3) An anticancer effect of phytosphingosine derivatives was determined in the same manner as mentioned in (1-1) and (1-2) except using 5 μg/ml of C4PS, C6PS, C8PS, and C12PS.

[10] = tested on: human breast cancer cells; test: Colony formation test in combination with radiation; assay type: cell-based; conditions: FIG. 18
Protocol: as §3, §4

[11] = tested on: human uterine cervical cancer cells; test: as above; assay type: cell-based; conditions: FIG. 18
Protocol: as §3, §4

| SMILES | chromosomal DNA fragmentation, concurrent treatment vs radiation or C8PS alone [1] | tumor volume, concurrent treatment vs radiation or C8PS alone ([2]; 50 mg/kg oral daily for one week then radiotherapy 20 Gy, FIG. 22) | size of initial tumor, radiation and C8PS concurrent treated group ([2]; 50 mg/kg oral daily for one week then radiotherapy 20 Gy, FIG. 23) | tumor size, C8PS alone treated group ([2]; after the 10th day after treatment (increased until 10 days), FIG. 23) | radiosensitivity ([3]; FIG. 12) | increase of radiosensitivity relative to Taxol ([3]; at LD50 of human lung cancer cells, FIG. 14B) | sensitizer enhancement ratio (SER) ([3]; FIG. 12) | increase of apoptotic rate, concurrent treatment vs radiation alone ([3]; radiation at LD50 (number of colonies reduced to 50% by radiation alone), FIG. 14A) | apoptotic effect of concurrent application with radiation [4] | apoptotic rate, concurrent treatment vs radiation or C8PS alone ([5]; FIG. 19) | increase of apoptotic rate, concurrent treatment vs radiation or C8PS alone ([5]; as a function of time, FIG. 21) | enhancement of radiosensitizing effect [6] | enhancement of radiosensitizing effect [7] | tumor size, compound alone treated group [8] | tumor size, radiation and compound concurrent treated group [8] | tumor size, concurrent treatment vs radiation or compound alone [8] | apoptotic rate [9] | sensitizer enhancement ratio (SER) [10] | sensitizer enhancement ratio (SER) [11] |
| --- | --- | --- | --- | --- | --- | --- | --- | --- | --- | --- | --- | --- | --- | --- | --- | --- | --- | --- | --- |
| CCCCCCCCCCCCCC[C@@H](O)[C@@H](O)[C@H](CO)NC(=O)CCCCCCC [C8PS, N-octanoyl phytosphingosine] | remarkably increased | significantly reduced | maintained or reduced | showed little changed | excellent radiosensitivity | ≥ 20% | 2 | about 30% | excellent apoptotic effect | higher apoptotic rate | ≥ 20% |  |  |  |  |  |  |  |  |
| CCCCCCCCCCCCCC[C@@H](O)[C@@H](O)[C@H](CO)NC(=O)CCC [C4PS, N-butanoyl phytosphingosine] |  |  |  |  |  |  |  |  |  |  |  | excellent | excellent | slowly increased | showed little changes | significant reduction in tumor size | ~100% |  |  |
| CCCCCCCCCCCCCC[C@@H](O)[C@@H](O)[C@H](CO)NC(=O)CCCCC [C6PS, N-hexanoyl phytosphingosine] |  |  |  |  |  |  | 1.6 |  |  |  |  | excellent | excellent | slowly increased | showed little changes | significant reduction in tumor size | ~100% | 2.40 | 2.67 |
| CCCCCCCCCCCCC/C=C/[C@@H](O)[C@@H](N)CO [sphingosine] |  |  |  |  |  |  | 1.10 |  |  |  |  |  |  |  |  |  |  |  |  |
